{"source": "patent US20230309833A1", "about": "“METHODS AND MATERIALS FOR USING [18F]-F-ARAG IN CARDIAC IMAGING” (CELLSIGHT TECHNOLOGIES INC., priority 2020, published 2023)", "molecules": {"B1": {"name": "deoxyguanosine kinase (dGK) (Homo sapiens) (protein)", "chain": "RLSIEGNIAVGKSTFVKLLTKTYPEWHVATEPVATWQNIQAAGTQKACTAQSLGNLLDMMYREPARWSYTFQTFSFLSRLKVQLEPFPEKLLQARKPVQIFERSVYSDRYIFAKNLFENGSLSDIEWHIYQDWHSFLLWEFASRITLHGFIYLQASPQVCLKRLYQRAREEEKGIELAYLEQLHGQHEAWLIHKTTKLHFEALMNIPVLVLDVNDDFSEEVTKQEDLMREVNTFVKNL"}}, "key": {"[1]": {"conditions": "some patients; cited from earlier work"}, "[2]": {"system": "CCRF-CEM cells", "assay": "Competition of cold 2F-AraG with 8-[3H]-AraG uptake, CCRF-CEM", "format": "cell-based", "conditions": "increasing 2F-AraG 1-100 µM, 60 or 120 minutes", "method": "FIG. 2.3A illustrates a graph of 5 × 10^5CCRF-CEM cells were incubated, in triplicate, with 1uCi 8H^3-AraG (1mCi/ml) and increasing amounts of cold 2F-AraG or DMSO for either 60 or 120 minutes. Percent of control uptake was calculated as: measured cpm of sample/ cpm accumulated 1uCi 8[H^3]-AraG control x 100.\nPreviously we successfully synthesized a novel ^18F derivative of 2-deoxyguanosine analog, 9-β-D-arabinofuranosylguanine (“^18F-AraG” or “[^18F]F—AraG)”, to use as a molecular probe (FIG. 2.1). [^18F]AraG cell uptake was evaluated in leukemia cell line, CCRF-CEM, and was compared with [^3H]AraG cell uptake. […] To determine whether cold derivative 2F-AraG competes with the uptake of 8-[^3H]—AraG, we studied the [^3H]-Arag uptakes by CCRF-CEM, MOLT-4 (Leukemia cell line) and Raji (human Burkitt’s lymphoma cell line) and competition with cold 2F-AraG (FIGS. 2.3A and 2.3B). […] Competition assays indicate that cold derivative 2F-Arag competes with the uptake of the 8-[^3H]—AraG, indicating similar uptake pathways."}, "[3]": {"system": "heart", "conditions": "cited from earlier work"}, "[4]": {"system": "colon cancer model", "format": "in vivo, mice", "conditions": "tumors and tumor draining lymph nodes", "from_the_text": "FIGS. 13A-13D show data from embodiments of the invention. FIG. 13A. […] FIG. 13B. […] White circles indicate tumor draining lymph nodes, yellow arrows point to tumors. FIG. 13C.\nThe discovery of the immune response that results from chemotherapy-induced tumor cell death, termed immunogenic cell death (32), has sparked interest in harnessing chemotherapy’s immunomodulatory effects for possible synergistic combinations with immunotherapeutics (33,34)."}, "[5]": {"biological_target": "T1, deoxyguanosine kinase (dGK) (Homo sapiens, UniProt Q16854)", "T1 sequence (Q16854 40-277)": "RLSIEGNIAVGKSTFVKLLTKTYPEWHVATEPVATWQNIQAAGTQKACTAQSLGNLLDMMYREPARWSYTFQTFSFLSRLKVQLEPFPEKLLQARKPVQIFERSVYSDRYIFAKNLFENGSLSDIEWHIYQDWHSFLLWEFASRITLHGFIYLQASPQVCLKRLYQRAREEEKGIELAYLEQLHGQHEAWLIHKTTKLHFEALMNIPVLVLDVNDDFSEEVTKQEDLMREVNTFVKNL", "assay": "Enzyme kinetics of dGK", "format": "biochemical", "conditions": "dGuo positive control, unit not given", "from_the_text": "[…]. Lines indicate best fit. […]. Lines indicate best fit. […]."}, "[6]": {"substrate": "Nc1nc2c(ncn2[C@H]2C[C@H](O)[C@@H](CO)O2)c(=O)[nH]1", "assay": "purified protein, by the assay type", "conditions": "other: dGuo positive control, unit inferred"}}}
{"molecule": "Nc1nc2c(ncn2[C@@H]2O[C@H](CO)[C@@H](O)[C@@H]2O)c(=O)[nH]1", "note": "[AraG, 9-(β—D—Arabinofuranosyl)guanine]", "values": [{"measurement": "Therapeutic serum level at which neurotoxic side effects are reported", "setting": "[1]", "value": "~ 150 µM"}]}
{"molecule": "Nc1nc2c(ncn2[C@@H]2O[C@H](CO)[C@@H](O)[C@@H]2F)c(=O)[nH]1", "note": "[2F-AraG, 2′-Deoxy-2′-fluoro-9-β-D-arabinofuranosylguanine]", "values": [{"measurement": "Effect on [3H]-AraG uptake", "setting": "[2]", "value": "decrease"}]}
{"molecule": "CC(C)Oc1cccc(C=NCC(C)(C)CNCCNCC(C)(C)CN=Cc2cccc(OC(C)C)c2[O-])c1[O-].[68Ga+3].[I-]", "note": "[^68Ga-Galmydar]", "values": [{"measurement": "Cardiac uptake of tracer in doxorubicin treated animals", "setting": "[3]; preclinical studies", "value": "reduction in cardiac uptake"}]}
{"molecule": "Paclitaxel/carboplatin", "values": [{"measurement": "Change in [18F]F-AraG signal intensity after treatment", "setting": "[4]", "value": "did not lead to appreciable changes"}]}
{"molecule": "Nc1nc2c(ncn2[C@H]2C[C@H](O)[C@@H](CO)O2)c(=O)[nH]1", "note": "[dGuo, 2′-deoxyguanosine]", "values": [{"measurement": "Vmax of dGK", "setting": "[5]", "value": 123.2}]}
{"molecule": "COc1cccc2c1C(=O)c1c(O)c3c(c(O)c1C2=O)C[C@@](O)(C(=O)CO)C[C@@H]3O[C@H]1C[C@H](N)[C@H](O)[C@H](C)O1", "note": "[doxorubicin]", "values": [{"measurement": "Effect of treatment on 18FDG uptake in the heart", "setting": "[3]; in vivo", "value": "increase"}]}
{"molecule": "B1", "values": [{"measurement": "Km", "setting": "[6]", "value": 5.08, "unit": "µM"}]}
